Source: US11584742B2 (MASARYKOVA UNIVERZITA, priority 2018, dated 2023)

Key:
[1] = biological target: T1, MRE11 (Homo sapiens, UniProt P49959); assay: HTS nuclease assay (cleavage of CY5/BBQ-quenched 5' overhang DNA substrate); type: biochemical; conditions: in vitro HTS nuclease assay; 18 nM MRE11, 40 nM DNA substrate; analysis at t=4 h
T1 sequence (P49959 1-708): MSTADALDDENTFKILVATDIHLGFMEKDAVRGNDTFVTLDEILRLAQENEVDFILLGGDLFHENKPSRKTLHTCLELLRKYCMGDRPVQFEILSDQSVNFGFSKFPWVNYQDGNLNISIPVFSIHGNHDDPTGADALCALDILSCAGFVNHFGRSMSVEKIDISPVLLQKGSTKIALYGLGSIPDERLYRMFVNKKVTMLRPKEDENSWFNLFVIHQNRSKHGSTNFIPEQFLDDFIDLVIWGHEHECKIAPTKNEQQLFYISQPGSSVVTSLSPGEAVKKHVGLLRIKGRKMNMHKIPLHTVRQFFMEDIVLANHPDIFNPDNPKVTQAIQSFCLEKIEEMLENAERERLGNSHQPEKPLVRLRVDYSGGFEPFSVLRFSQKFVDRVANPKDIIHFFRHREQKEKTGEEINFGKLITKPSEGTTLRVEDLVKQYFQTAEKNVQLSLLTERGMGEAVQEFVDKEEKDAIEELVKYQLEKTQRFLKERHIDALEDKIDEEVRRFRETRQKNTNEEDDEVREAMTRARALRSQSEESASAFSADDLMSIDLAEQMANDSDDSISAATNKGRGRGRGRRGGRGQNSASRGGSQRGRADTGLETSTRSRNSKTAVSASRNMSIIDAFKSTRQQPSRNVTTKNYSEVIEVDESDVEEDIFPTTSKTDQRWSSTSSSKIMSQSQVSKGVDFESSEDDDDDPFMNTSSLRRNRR
Experimental: DNA Substrate Preparation
The DNA substrate is prepared by mixing the oligonucleotides listed below in a 1:1 ratio to reach a final concentration of 6 μM in a buffer containing 50 mM Tris pH 7.5, 100 mM NaCl and 8 mM MgCl2.
This substrate is a 5′ overhang, which is a preferred substrate of MRE11. […] The fluorescence increases upon substrate cleavage by MRE11, when separation of the two labels occur.
The conditions of the assay are as follows:
Total reaction volume: 5 μL
DNA substrate concentration in the reaction: 40 nM
Inhibitor concentration range tested: 7 nM-50 μM
Each plate contains a series of high and low signal control wells, where no compound is added:
High signal: MRE11+DNA substrate
Low signal: DNA substrate only
These are used during data evaluation.
Two extra assay controls:
1) To check whether unwinding of DNA by the compounds alone occurs.
The DNA substrate [CY5+BBQ(650)] is mixed with the compounds with no protein present.
The CY5 single stranded oligo is mixed with the compounds with no protein present.
The layout of the plates is created by the in-house software (CZ-Openscreen Prague) and this information is transferred to the robotic HTS station.
The reaction is started by the addition of DNA and the reaction time is counted from that moment, including a 15 min delay. Ten timepoints are measured:
The assay data analysis was performed at t=4 h. This corresponds to the time when the reaction is close to its maximum.
The data analysis was performed using the in-house software to obtain IC50 for each compound.

[2] = tested on: DR-GFP U2OS cells; assay: HR assay (GFP fluorescence after I-SceI transfection, flow cytometry); type: cell-based; conditions: Homo sapiens, inhibitor at 25 μM, 72 hours after transfection
Experimental: DR-GFP U2OS cells (Methods in Molecular Biology 2012, 920, 379.) were transfected with 2.5 μg of I-SceI-expressing pCAGGS vector and treated with the inhibitors at 25 μM concentration. 72 hours after the transfection, the cells were trypsinized and resuspended in 3% BSA in PBS. GFP fluorescence detection was carried out using a BD FACSVerse flow cytometer and data analyzed with FlowJo software.

Row | Compound | IC50 [1] [nM] | inhibition at 25 µM [2] [%]
1 | COc1ccc(-c2csc(NC(=O)/C(C#N)=C/c3ccc(O)c(O)c3)n2)cc1O [Preparative Example 166, (E)-2-cyano-3-(3,4-dihydroxyphenyl)-N-(4-(3-hydroxy-4-methoxyphenyl)thiazol-2-yl)acrylamide] | < 2000 | > 75
2 | CC(C)(O)c1ccc(-c2csc(NC(=O)/C(C#N)=C/c3ccc(O)c(O)c3)n2)cc1 [Preparative Example 182, (E)-2-cyano-3-(3,4-dihydroxyphenyl)-N-(4-(4-(2-hydroxypropan-2-yl)phenyl)thiazol-2-yl)acrylamide] | < 2000 | 50 to 75
3 | Cc1ccc(-c2csc(NC(=O)/C(C#N)=C/c3cc(Cl)c(O)c(Cl)c3)n2)cc1 [Preparative Example 168] | < 2000 | > 75
4 | N#C/C(=C\c1ccc(O)c(O)c1)C(=O)Nc1nc(-c2cccnn2)cs1 [Preparative Example 186] | < 2000 | < 50
5 | N#C/C(=C\c1ccc(O)c(O)c1)C(=O)Nc1nc(-c2ccc(C(F)(F)F)cn2)cs1 [Preparative Example 179, (E)-2-cyano-3-(3,4-dihydroxyphenyl)-N-(4-(5-(trifluoromethyl)pyridin-2-yl)thiazol-2-yl)acrylamide] | < 2000 | > 75
6 | Cc1cc(/C=C(\C#N)C(=O)Nc2nc(-c3ccccc3)cs2)ccc1O [Preparative Example 217, (E)-2-cyano-3-(4-hydroxy-3-methylphenyl)-N-(4-phenylthiazol-2-yl)acrylamide] |  | 50 to 75
7 | N#C/C(=C\c1ccc(O)c(O)c1)C(=O)Nc1nc(C23CC4CC(CC(C4)C2)C3)cs1 [Preparative Example 174, (E)-N-(4-((1S,3s)-adamantan-1-yl)thiazol-2-yl)-2-cyano-3-(3,4-dihydroxyphenyl)acrylamide] | 2000 to 10000 | 50 to 75
8 | Cc1cc(C(C)(C)C)cc(C)c1-c1csc(NC(=O)/C(C#N)=C/c2ccc(O)c(O)c2)n1 [Preparative Example 246, (E)-N-(4-(4-(tert-butyl)-2,6-dimethylphenyl)thiazol-2-yl)-2-cyano-3-(3,4-dihydroxyphenyl)acrylamide] | < 2000 | > 75
9 | Cc1cc(/C=C(\C#N)C(=O)Nc2nc(-c3ccc(OC(F)(F)F)cc3)cs2)cc(C)c1O [Preparative Example 177, (E)-2-cyano-3-(3,5-dimethyl-4-hydroxyphenyl)-N-(4-(4-(trifluoromethoxy)phenyl)thiazol-2-yl)acrylamide] |  | > 75
10 | CC(C)c1cc(/C=C(\C#N)C(=O)Nc2nc(-c3ccccc3)cs2)cc(C(C)C)c1O [Preparative Example 237, (E)-2-cyano-3-(4-hydroxy-3,5-diisopropylphenyl)-N-(4-phenylthiazol-2-yl)acrylamide] |  | > 75
11 | CC(C)(C)c1cc(/C=C(\C#N)C(=O)Nc2nc(-c3ccccc3)cs2)cc(C(C)(C)C)n1 [Preparative Example 240, (E)-2-cyano-3-(2,6-di-tert-butylpyridin-4-yl)-N-(4-phenylthiazol-2-yl)acrylamide] |  | > 75
12 | CC(C)(C)c1cc(/C=C(\C#N)C(=O)Nc2nc(-c3ccccc3)cs2)ccc1O [Preparative Example 235, (E)-3-(3-(tert-butyl)-4-hydroxyphenyl)-2-cyano-N-(4-phenylthiazol-2-yl)acrylamide] |  | > 75
13 | Cc1cc(/C=C(\C#N)C(=O)Nc2nc(-c3ccccc3)cs2)cc(C(C)(C)C)c1O [Preparative Example 234, (E)-3-(3-(tert-butyl)-4-hydroxy-5-methylphenyl)-2-cyano-N-(4-phenylthiazol-2-yl)acrylamide] |  | > 75
14 | N#C/C(=C\c1ccc(O)cc1O)C(=O)Nc1nc(-c2ccccc2)cs1 [Preparative Example 218, (E)-2-cyano-3-(2,4-dihydroxyphenyl)-N-(4-phenylthiazol-2-yl)acrylamide] |  | 50 to 75
15 | CC(C)(C)c1cc(/C=C(\C#N)C(=O)Nc2nc(-c3ccc(OC(F)(F)F)cc3)cs2)cc(C(C)(C)C)c1O [Preparative Example 221] |  | < 50

Second part, led by results:

Row | IC50 [1] [nM] | Compound | inhibition at 25 µM [2] [%]
16 | < 2000 | C#Cc1ccc(-c2csc(NC(=O)/C(C#N)=C/c3ccc(O)c(O)c3)n2)cc1 [Preparative Example 197, (E)-2-cyano-3-(3,4-dihydroxyphenyl)-N-(4-(4-ethynylphenyl)thiazol-2-yl)acrylamide] | > 75
17 | < 2000 | COc1ccc(-c2csc(NC(=O)/C(C#N)=C/c3ccc(O)c(O)c3)n2)cc1 [Preparative Example 162, (E)-2-cyano-3-(3,4-dihydroxyphenyl)-N-(4-(4-methoxyphenyl)thiazol-2-yl)acrylamide] | > 75
18 | 10000 to 90000 | N#C/C(=C\c1ccc(F)c(F)c1)C(=O)Nc1nc(-c2ccccc2)cs1 [Preparative Example 213, (E)-2-cyano-3-(3,4-difluorophenyl)-N-(4-phenylthiazol-2-yl)acrylamide] | < 50
19 | 2000 to 10000 | N#C/C(=C\c1ccc(O)c(O)c1)C(=O)Nc1nc(-c2ccc(Oc3ccccc3)cc2)cs1 [Preparative Example 172, (E)-2-cyano-3-(3,4-dihydroxyphenyl)-N-(4-(4-phenoxyphenyl)thiazol-2-yl)acrylamide] | > 75
20 | 2000 to 10000 | N#C/C(=C\c1cnc(O)c(O)c1)C(=O)Nc1nc(-c2ccccc2)cs1 [Preparative Example 200, (E)-2-cyano-3-(5,6-dihydroxypyridin-3-yl)-N-(4-phenylthiazol-2-yl)acrylamide] | < 50
21 | < 2000 | N#C/C(=C\c1ccc(O)c(O)c1)C(=O)Nc1nc(-c2cc(F)cc(F)c2)cs1 [Preparative Example 185, (E)-2-cyano-N-(4-(3,5-difluorophenyl)thiazol-2-yl)-3-(3,4-dihydroxyphenyl)acrylamide] | 50 to 75
22 | < 2000 | N#C/C(=C\c1ccc(O)c(O)c1)C(=O)Nc1nc(-c2cccc(F)c2)cs1 [Preparative Example 236, (E)-2-cyano-3-(3,4-dihydroxyphenyl)-N-(4-(3-fluorophenyl)thiazol-2-yl)acrylamide] | 50 to 75
23 | 2000 to 10000 | CC(=O)Nc1cccc(/C=C(\C#N)C(=O)Nc2nc(-c3ccccc3)cs2)c1 [Preparative Example 207, 3-(3-acetamidophenyl)-2-cyano-N-(4-phenylthiazol-2-yl)acrylamide] | 50 to 75
24 | 2000 to 10000 | COc1cc(/C=C(\C#N)C(=O)Nc2nc(-c3ccccc3)cs2)cc(F)c1O [Preparative Example 203, (E)-2-cyano-3-(3-fluoro-4-hydroxy-5-methoxyphenyl)-N-(4-phenylthiazol-2-yl)acrylamide] | < 50
25 | 10000 to 90000 | N#C/C(=C\c1cccc(C(=O)O)c1)C(=O)Nc1nc(-c2ccccc2)cs1 [Preparative Example 210, (E)-3-(2-cyano-3-oxo-3-((4-phenylthiazol-2-yl)amino)prop-1-en-1-yl)benzoic acid] | < 50
26 | 10000 to 90000 | N#C/C(=C\c1ccc2[nH]c(=O)[nH]c2c1)C(=O)Nc1nc(-c2ccccc2)cs1 [Preparative Example 216, (E)-2-cyano-3-(2-oxo-2,3-dihydro-1H-benzo[d]imidazol-5-yl)-N-(4-phenylthiazol-2-yl)acrylamide] | < 50
27 | < 2000 | N#C/C(=C\c1ccc(O)c(O)c1)C(=O)Nc1nc(-c2ccccc2)c(Cl)s1 [Preparative Example 195, (E)-N-(5-chloro-4-phenylthiazol-2-yl)-2-cyano-3-(3,4-dihydroxyphenyl)acrylamide] | 50 to 75
